According to EP0643966A1, “SENSITIVITY ENHANCER FOR ANTINEOPLASIC AGENT” (KYOWA HAKKO KOGYO CO., LTD., priority 1993, dated 1994):
Counter-ions that a name gives are not always drawn. Like-named read-outs stand apart in the source and are kept apart here.

Legend:
[1] = test system: Adriamycin-Resistant Human Ovary Cancer Cells (A2780/ADM); assay: Test on Vindesine Resistance Using Adriamycin-Resistant Human Ovary Cancer Cells (A2780/ADM)
Method: (§1) A2780/ADM cells were diluted with an RPMI 1640 medium (430-1800 EB, produced by GIBCO) containing 10% fetal bovine serum (200-6140AG, produced by GIBCO) and 1% glutamine (320-5030 PG, produced by GIBCO) to a concentration of 30000 cells/ml. One milliliter of the cell suspension was inoculated to each well of a 24-well microtiter plate and cultured under conditions of 37°C, 5% CO₂, and a humidity of 95% or higher for 1 day. A mixture of 0.1 ml of a Vindesine solution diluted serially with the above medium and 0.1 ml of the above medium was added to each well as a control group. […] The cells in each well were further cultured under the same conditions as above for additional 3 days, and the number of the cells was counted with a Coulter counter to obtain a 50% growth inhibitory concentration (IC₅₀) of the control groups and the test groups.

[2] = test system: Vincristine-Resistant Mouse Leukemia Cells (P388/VCR); assay: Test on Vincristine Resistance Using Vincristine-Resistant Mouse Leukemia Cells (P388/VCR); type: in vivo; settings: for T/C: P388/VCR-implanted CDF₁ mice
Method: Vincristine-resistant P388 cells (P388/VCR) were suspended in physiological saline, and 5x10⁶ cells/0.2 ml were intraperitoneally implanted to grouped 6-week-old CDF₁ strain male mice, each group consisting of 5 mice. A prescribed amount of Vincristine alone or a mixture of Vincristine and a test compound (I) was intraperitoneally administered for consecutive 5 days from the next day of the implantation. The effect of overcoming the drug resistance was evaluated in terms of T/C, a percentage of the number of survival days of a test group to the number of survival days of a control group.
Vincristine (VCR) used was Vincristine Sulfate, produced by Shionogi & Co., Ltd., dissolved in physiological saline. Compound (I) was suspended in a 0.3% aqueous solution of carboxymethyl cellulose and administered in an amount of 0.1 ml per 10 g-b.w. […]

[3] = test system: Adriamycin-Resistant Human Ovary Cancer Cells (A2780/ADM); settings: 72 h
Method: as §1

[4] = A2780, 72 h, read-out: IC₅₀ of Test Compound Alone, A2780/ADM cells, test compound alone, 3 days culture, cell count

| Compound | IC50 [1, 4] | other results |
| --- | --- | --- |
| CNC1CC2OC(C)(C1OC)n1c3ccccc3c3c4c(c5c6ccccc6n2c5c31)C(=O)N(C)C4 (stereo not drawn) [Compound I-1] | 0.26 µM | – |
| CCCCCCOC(=O)C1(O)CC2OC1(C)n1c3ccccc3c3c4c(c5c6ccccc6n2c5c31)C(=O)NC4=O (stereo not drawn) [Compound I-15] | 2.8 µM | – |
| COC1C(N(C)CCO)CC2OC1(C)n1c3ccccc3c3c4c(c5c6ccccc6n2c5c31)C(=O)NC4O (single isomer, unassigned) [Compound I-9] | 9.2 µM | – |
| COC1C(N(C)C(=O)CN2CCOCC2)CC2OC1(C)n1c3ccccc3c3c4c(c5c6ccccc6n2c5c31)C(=O)NC4O (stereo not drawn) [Compound I-4] | 7 µM | – |
| COC1C(N(C)C(=O)CN(C)C)CC2OC1(C)n1c3ccccc3c3c4c(c5c6ccccc6n2c5c31)C(=O)NC4O (stereo not drawn) [Compound I-5] | 9.1 µM | – |
| CCCCOC(=O)C1(O)CC2OC1(C)n1c3ccccc3c3c4c(c5c6ccccc6n2c5c31)C(=O)NC4 (stereo not drawn) [Compound I-13] | 1.1 µM | – |
| COC(=O)C1(OC(C)=O)CC2OC1(C)n1c3ccccc3c3c4c(c5c6ccccc6n2c5c31)C(=O)N(C(C)=O)C4 (stereo not drawn) [Compound I-17] | > 100 µM | – |
| COC1C(N(C)C(=O)N2CCN(C)CC2)CC2OC1(C)n1c3ccccc3c3c4c(c5c6ccccc6n2c5c31)C(=O)NC4O (stereo not drawn) [Compound I-3] | 10 µM | – |
| CCCOC(=O)C1(O)CC2OC1(C)n1c3ccccc3c3c4c(c5c6ccccc6n2c5c31)C(=O)NC4 (stereo not drawn) [Compound I-12] | 0.42 µM | – |
| CC[C@]1(O)C[C@@H]2CN(CCc3c([nH]c4ccccc34)[C@@](C(=O)OC)(c3cc4c(cc3OC)N(C)[C@H]3[C@@](O)(C(N)=O)[C@H](O)[C@]5(CC)C=CCN6CC[C@]43[C@@H]65)C2)C1 [Vindesine, reference compound] | – | IC50 ([1]; A2780, read-out: IC₅₀ of Vindesine, A2780/ADM cells, control group: Vindesine alone, no test compound): 1.3 µM |
| COC1C(N(C)C(=O)CN2CCN(C)CC2)CC2OC1(C)n1c3ccccc3c3c4c(c5c6ccccc6n2c5c31)C(=O)NC4O (stereo not drawn) [Compound I-6] | 12.5 µM | – |
| COC1C(N(C)C(=O)OCc2ccccc2)CC2OC1(C)n1c3ccccc3c3c4c(c5c6ccccc6n2c5c31)C(=O)N(C)C4 (stereo not drawn) [Compound I-2] | > 100 µM | T/C ([2]; Compound (I-2) alone 22.2 mg/kg i.p. for 5 consecutive days, survival days vs control): 102%; effect of overcoming the drug resistance ([2]; P388/VCR-implanted mice, combined with Vincristine, statement in words): excellent effects to overcome the drug resistance; T/C ([2]; VCR 0.1 mg/kg + Compound (I-2) 22.2 mg/kg i.p. for 5 consecutive days): 152% |
| CCOC(=O)N(C)C1CC2OC(C)(C1OC)n1c3ccccc3c3c4c(c5c6ccccc6n2c5c31)C(=O)N(C)C4 (stereo not drawn) [Compound I-10] | – | IC50 ([1]; A2780, 72 h, read-out: IC₅₀ of Test Compound Alone): > 10 µM |
| CC[C@]1(O)C[C@H]2CN(CCc3c([nH]c4ccccc34)[C@@](C(=O)OC)(c3cc4c(cc3OC)N(C=O)[C@H]3[C@@](O)(C(=O)OC)[C@H](OC(C)=O)[C@]5(CC)C=CCN6CC[C@]43[C@@H]65)C2)C1 [VCR, Vincristine Sulfate, reference compound] | – | T/C ([2]; VCR alone 0.1 mg/kg i.p. for 5 consecutive days): 112%; T/C ([2]; VCR alone 0.2 mg/kg i.p. for 5 consecutive days): 116%; T/C ([2]; VCR alone 0.4 mg/kg i.p. for 5 consecutive days): 121% |
| CCCCCCOC(=O)C1(O)CC2OC1(C)n1c3ccccc3c3c4c(c5c6ccccc6n2c5c31)C(=O)NC4 (stereo not drawn) [Compound I-14] | 4.8 µM | – |
| COC1C(N(C)CCO)CC2OC1(C)n1c3ccccc3c3c4c(c5c6ccccc6n2c5c31)C(=O)NC4O (single isomer, unassigned) [Compound I-8] | – | IC50 [3]: 17.2 µM |
| CCOC(=O)C1(O)CC2OC1(C)n1c3ccccc3c3c4c(c5c6ccccc6n2c5c31)C(=O)NC4 (stereo not drawn) [Compound I-11] | 0.16 µM | IC50 ([1]; A2780, read-out: IC₅₀ of Vindesine, A2780/ADM cells, Vindesine with test compound at 0.05 µM): 0.77 µM |
| COC1C(N(C)CCOC(=O)N2CCN(C)CC2)CC2OC1(C)n1c3ccccc3c3c4c(c5c6ccccc6n2c5c31)C(=O)NC4O (stereo not drawn) [Compound I-7] | 9.5 µM | – |
